Legend:
Format in all cases: biochemical
PI3K γ = PI3K γ (Homo sapiens (Human), UniProt P48736); experiment: PI 3-Kinase (human) HTRF assay, p110γ; settings: read-out: PI3K γ IC50
PI3K α = PI3K α (Homo sapiens (Human), UniProt P42336); experiment: PI 3-Kinase (human) HTRF assay, p110α/p85α
PI3K δ = PI3K δ (Homo sapiens (Human), UniProt O00329); experiment: PI 3-Kinase (human) HTRF assay, p110δ/p85α
PI3K β = PI3K β (Homo sapiens (Human), UniProt P42338); experiment: PI 3-Kinase (human) HTRF assay, p110β/p85α
Chain of PI3K β (P42338 whole entry): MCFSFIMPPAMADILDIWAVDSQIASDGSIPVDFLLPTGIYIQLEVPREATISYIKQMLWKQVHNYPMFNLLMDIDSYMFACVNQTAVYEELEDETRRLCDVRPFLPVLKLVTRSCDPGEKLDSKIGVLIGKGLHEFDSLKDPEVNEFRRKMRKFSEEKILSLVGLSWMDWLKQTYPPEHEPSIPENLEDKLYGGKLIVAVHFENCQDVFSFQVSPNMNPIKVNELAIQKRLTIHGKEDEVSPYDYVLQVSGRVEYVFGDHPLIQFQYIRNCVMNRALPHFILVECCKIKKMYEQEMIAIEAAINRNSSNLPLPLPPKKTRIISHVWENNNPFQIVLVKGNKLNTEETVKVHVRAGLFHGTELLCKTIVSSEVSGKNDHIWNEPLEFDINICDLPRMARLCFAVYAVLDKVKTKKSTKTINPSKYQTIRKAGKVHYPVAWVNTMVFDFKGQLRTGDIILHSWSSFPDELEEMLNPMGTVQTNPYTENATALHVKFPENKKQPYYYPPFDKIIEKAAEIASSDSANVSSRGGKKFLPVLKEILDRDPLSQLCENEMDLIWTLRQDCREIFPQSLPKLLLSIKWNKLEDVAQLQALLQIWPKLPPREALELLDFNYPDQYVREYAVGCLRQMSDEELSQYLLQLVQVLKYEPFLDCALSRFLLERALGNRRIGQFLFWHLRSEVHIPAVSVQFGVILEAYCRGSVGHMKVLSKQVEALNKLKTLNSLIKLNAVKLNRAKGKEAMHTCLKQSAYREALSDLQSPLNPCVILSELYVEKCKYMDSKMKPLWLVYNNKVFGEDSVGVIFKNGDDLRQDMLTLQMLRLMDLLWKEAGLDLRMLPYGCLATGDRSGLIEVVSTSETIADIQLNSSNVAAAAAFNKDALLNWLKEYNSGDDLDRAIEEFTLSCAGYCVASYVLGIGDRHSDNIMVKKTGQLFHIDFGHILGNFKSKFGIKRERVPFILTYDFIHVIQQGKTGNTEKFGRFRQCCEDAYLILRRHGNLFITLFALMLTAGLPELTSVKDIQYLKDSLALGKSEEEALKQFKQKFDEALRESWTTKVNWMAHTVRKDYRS
Chain of PI3K β (P27986 whole entry partner): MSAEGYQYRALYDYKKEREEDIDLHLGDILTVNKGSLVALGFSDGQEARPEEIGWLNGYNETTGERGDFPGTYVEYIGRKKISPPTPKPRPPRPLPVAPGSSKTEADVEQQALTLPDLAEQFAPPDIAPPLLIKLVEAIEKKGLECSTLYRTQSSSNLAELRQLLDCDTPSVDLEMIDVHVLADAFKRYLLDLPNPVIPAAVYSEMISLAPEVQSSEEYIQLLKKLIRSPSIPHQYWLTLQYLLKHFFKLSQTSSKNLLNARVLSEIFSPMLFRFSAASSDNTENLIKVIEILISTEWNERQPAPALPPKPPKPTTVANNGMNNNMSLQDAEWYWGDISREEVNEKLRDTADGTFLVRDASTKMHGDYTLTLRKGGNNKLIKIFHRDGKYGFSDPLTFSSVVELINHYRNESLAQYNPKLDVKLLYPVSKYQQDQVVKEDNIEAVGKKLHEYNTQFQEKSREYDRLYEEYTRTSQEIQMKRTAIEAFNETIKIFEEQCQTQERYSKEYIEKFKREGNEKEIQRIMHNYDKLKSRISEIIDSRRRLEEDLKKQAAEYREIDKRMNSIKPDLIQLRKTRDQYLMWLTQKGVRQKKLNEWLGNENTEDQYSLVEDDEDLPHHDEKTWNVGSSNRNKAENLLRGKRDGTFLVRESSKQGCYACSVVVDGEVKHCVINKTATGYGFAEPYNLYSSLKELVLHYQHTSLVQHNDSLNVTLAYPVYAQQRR

Chain of PI3K γ (P48736 whole entry): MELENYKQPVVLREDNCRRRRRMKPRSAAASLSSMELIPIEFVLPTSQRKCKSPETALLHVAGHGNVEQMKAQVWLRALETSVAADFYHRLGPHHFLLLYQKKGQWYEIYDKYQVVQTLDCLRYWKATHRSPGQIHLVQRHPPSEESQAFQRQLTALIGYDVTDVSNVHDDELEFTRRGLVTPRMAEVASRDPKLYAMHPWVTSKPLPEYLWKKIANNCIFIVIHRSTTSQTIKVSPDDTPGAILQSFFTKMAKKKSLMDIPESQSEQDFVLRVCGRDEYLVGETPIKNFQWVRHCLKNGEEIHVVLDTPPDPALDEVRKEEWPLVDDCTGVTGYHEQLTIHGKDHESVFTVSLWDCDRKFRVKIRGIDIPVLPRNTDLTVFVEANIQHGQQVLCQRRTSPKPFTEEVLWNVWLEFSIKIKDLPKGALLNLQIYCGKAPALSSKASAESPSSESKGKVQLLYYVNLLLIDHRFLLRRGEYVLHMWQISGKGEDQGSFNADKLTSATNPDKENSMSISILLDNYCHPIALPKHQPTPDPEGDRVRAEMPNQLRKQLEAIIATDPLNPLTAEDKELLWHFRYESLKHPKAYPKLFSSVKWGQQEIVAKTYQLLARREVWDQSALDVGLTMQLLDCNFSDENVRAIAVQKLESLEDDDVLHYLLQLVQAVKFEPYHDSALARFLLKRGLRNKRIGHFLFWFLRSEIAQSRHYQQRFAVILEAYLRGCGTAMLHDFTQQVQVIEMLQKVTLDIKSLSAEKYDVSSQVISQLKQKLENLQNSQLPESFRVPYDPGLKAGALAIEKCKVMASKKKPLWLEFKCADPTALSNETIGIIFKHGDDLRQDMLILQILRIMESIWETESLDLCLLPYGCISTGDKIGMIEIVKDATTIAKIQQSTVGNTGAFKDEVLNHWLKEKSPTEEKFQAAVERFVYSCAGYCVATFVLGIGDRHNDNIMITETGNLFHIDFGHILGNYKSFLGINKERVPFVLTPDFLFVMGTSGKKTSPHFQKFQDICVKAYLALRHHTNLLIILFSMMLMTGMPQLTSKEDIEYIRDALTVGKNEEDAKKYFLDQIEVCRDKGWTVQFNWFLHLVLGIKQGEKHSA
Chain of PI3K α (P42336 whole entry): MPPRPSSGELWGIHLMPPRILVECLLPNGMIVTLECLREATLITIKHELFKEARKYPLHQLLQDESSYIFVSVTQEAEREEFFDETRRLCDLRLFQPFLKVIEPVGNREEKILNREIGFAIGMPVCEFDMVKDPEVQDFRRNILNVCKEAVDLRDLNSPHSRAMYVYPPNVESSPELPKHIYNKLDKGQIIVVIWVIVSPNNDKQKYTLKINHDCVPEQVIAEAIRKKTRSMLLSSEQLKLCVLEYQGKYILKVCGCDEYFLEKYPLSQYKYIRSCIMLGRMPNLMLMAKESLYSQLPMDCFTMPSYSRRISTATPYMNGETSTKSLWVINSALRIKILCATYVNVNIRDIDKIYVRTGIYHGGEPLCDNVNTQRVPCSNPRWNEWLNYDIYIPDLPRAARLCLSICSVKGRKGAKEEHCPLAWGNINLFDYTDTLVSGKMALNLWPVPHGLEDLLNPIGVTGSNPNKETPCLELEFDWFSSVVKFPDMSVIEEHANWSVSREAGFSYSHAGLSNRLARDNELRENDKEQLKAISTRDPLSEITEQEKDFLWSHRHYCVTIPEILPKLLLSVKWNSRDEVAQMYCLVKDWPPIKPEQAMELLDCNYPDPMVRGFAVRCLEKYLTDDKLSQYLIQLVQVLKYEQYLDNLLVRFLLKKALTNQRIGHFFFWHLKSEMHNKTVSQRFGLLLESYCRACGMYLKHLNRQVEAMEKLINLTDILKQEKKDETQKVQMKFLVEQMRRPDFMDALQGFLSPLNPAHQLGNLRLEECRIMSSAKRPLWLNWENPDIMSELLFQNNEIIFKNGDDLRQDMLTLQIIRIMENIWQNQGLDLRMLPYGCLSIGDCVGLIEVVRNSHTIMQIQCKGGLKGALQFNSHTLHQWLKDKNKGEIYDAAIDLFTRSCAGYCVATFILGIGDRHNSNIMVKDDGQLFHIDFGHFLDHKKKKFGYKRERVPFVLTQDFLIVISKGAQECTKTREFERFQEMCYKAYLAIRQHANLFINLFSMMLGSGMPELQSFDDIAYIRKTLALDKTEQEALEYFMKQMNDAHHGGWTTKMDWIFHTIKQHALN
Chain of PI3K α (P27986 whole entry partner): as the sequence (P27986 whole entry partner) above
Chain of PI3K δ (O00329 whole entry): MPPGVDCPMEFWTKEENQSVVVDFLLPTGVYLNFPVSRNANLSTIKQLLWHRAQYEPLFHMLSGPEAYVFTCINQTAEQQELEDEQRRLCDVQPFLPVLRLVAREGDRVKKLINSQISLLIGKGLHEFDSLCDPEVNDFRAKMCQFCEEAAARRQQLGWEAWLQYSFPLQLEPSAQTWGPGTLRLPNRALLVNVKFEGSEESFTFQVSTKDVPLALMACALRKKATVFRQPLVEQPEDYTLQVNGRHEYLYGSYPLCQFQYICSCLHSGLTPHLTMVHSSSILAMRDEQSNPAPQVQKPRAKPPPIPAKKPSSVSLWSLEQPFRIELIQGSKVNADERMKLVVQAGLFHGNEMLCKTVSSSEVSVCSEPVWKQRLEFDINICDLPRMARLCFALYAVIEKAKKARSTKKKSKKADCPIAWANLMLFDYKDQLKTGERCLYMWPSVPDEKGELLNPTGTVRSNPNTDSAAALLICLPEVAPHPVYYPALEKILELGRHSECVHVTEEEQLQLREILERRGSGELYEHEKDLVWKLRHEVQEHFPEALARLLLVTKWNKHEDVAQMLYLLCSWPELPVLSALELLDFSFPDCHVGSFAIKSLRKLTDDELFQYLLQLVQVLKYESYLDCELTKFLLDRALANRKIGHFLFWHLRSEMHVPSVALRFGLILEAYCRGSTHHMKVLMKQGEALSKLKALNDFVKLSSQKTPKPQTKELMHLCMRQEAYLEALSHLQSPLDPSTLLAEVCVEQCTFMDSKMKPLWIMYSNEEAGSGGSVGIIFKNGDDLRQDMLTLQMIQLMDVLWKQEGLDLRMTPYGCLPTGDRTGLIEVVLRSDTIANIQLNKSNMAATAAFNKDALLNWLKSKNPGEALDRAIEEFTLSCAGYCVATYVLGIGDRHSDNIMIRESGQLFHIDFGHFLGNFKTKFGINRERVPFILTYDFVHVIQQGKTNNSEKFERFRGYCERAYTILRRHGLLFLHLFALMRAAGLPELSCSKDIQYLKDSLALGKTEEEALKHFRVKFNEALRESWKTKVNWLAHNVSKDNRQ
Chain of PI3K δ (P27986 whole entry partner): as the sequence (P27986 whole entry partner) above

Row | SMILES | IC50 (PI3K γ) [nM] | IC50 (PI3K α) [nM] | IC50 (PI3K δ) [nM] | IC50 (PI3K β) [nM]
1 | CC(C)N1CCC(Nc2ncnc3ccc(-c4ccc5oc(N)nc5c4)cc23)CC1 | < 10000 | < 100 | < 1000 | < 10000
2 | Nc1nc2cc(-c3ccc4ncc(N5CC(N6C7CCC6COC7)C5)cc4n3)ccc2o1 | < 1000 | < 100 | < 10000 | > 10000
3 | Cn1c(N2CCOCC2)nc2cc(-c3ccc4oc(N)nc4c3)ccc2c1=O | > 10000 | < 1000 | > 10000 | > 10000
4 | CCN1CCN(C(=O)c2cnc3ccc(-c4ccc5oc(N)nc5c4)cn23)CC1 | < 10000 | < 1000 | > 10000 | > 10000
5 | Nc1nc2cc(-c3cnc4ccc(N5C6CCC5COC6)nc4c3)ccc2o1 | < 10000 | < 10000 | > 10000 | > 10000
6 | Nc1nc2cc(-c3ccc4ncc(C(=O)N5CCNCC5)n4c3)ccc2o1 | > 10000 | < 100 | > 10000 | < 10000
7 | Nc1noc2ccc(-c3ccc4nccc(-c5ccncc5)c4c3)cc12 [Compound 18] | < 10000 | < 10000 | > 10000 | > 10000
8 | Nc1nc2ccc(-c3ccc4ncn(C5CCOCC5)c(=O)c4c3)cc2o1 | > 10000 | < 10000 | > 10000 | > 10000
9 | CN1CCCN(C(=O)c2cnc3ccc(-c4ccc5oc(N)nc5c4)cn23)CC1 | > 10000 | < 1000 | > 10000 | < 10000
10 | Nc1nc2cc(-c3ccc4ncc(-c5ccc(N6CCOCC6)nc5)nc4c3)ccc2o1 | > 10000 | < 10000 | > 10000 | > 10000
11 | CN1CCN(c2ccnc3ccc(-c4ccc5oc(N)nc5c4)cc23)CC1 [Compound 21] | < 10000 | < 1000 | < 10000 | < 10000
12 | CC1CN(C(=O)c2cnc3ccc(-c4ccc5oc(N)nc5c4)cn23)CC(C)N1 (stereo not shown) | > 10000 | < 10000 | > 10000 | > 10000
13 | Nc1nc2cc(-c3ccc4ncc(-c5ccccc5)nc4c3)ccc2o1 | > 10000 | < 1000 | > 10000 | > 10000
14 | Nc1nsc2ccc(-c3ccc4nccc(-c5ccncc5)c4c3)cc12 [Compound 12] | > 10000 | > 10000 | > 10000 | > 10000
15 | CC1CN(C2CN(c3cnc4ccc(-c5ccc6oc(N)nc6c5)nc4n3)C2)CCO1 (stereo not shown) | < 10000 | < 1000 | > 10000 | > 10000
16 | Nc1nc2cc(-c3cc4nccc(-c5ccncc5)c4s3)ccc2o1 [Compound 14] | < 10000 | < 10000 | > 10000 | > 10000
17 | CN1CCN(C(=O)c2cnc3ccc(-c4ccc5nc(N)oc5c4)cn23)CC1 | > 10000 | < 1000 | > 10000 | < 10000
18 | Nc1nc2ccc(-c3ccc4ncc(C(=O)N5CCOCC5)n4c3)cc2o1 | < 1000 | < 1000 | > 10000 | < 1000
19 | Nc1nc2cc(-c3ccc4ncc(-c5ccc(N6CCOCC6)nc5)n4c3)ccc2o1 [Compound 51] | < 1000 | < 100 | < 1000 | < 1000
20 | Nc1nc2cc(-c3ccc4ncc(C(=O)N5CCOCC5)cc4c3)ccc2o1 | > 10000 | < 10000 | > 10000 | > 10000
21 | Nc1nc2cc(-c3ccc4ncc(N5CCN(CC6CC6)CC5)nc4c3)ccc2o1 | < 1000 | < 100 | < 1000 | < 100

Now from value to compound:

Row | IC50 (PI3K γ) [nM] | IC50 (PI3K α) [nM] | IC50 (PI3K δ) [nM] | IC50 (PI3K β) [nM] | SMILES
22 | < 1000 | < 100 | > 10000 | > 10000 | Nc1nc2ccc(-c3ccc4ncc(N5CCOCC5)nc4c3)cc2s1
23 | < 1000 | < 100 | > 10000 | < 1000 | Nc1nc2cc(-c3ccc4ncc(N5CCOCC5)nc4c3)ccc2s1
24 | < 1000 | < 100 | < 1000 | < 1000 | CN(C)CC(=O)N1CCC(Nc2ncnc3ccc(-c4ccc5oc(N)nc5c4)cc23)CC1
25 | < 1000 | < 100 | < 10000 | < 100 | Nc1nc2cc(-c3ccc4ncc(N5CCN(CCO)CC5)nc4c3)ccc2o1
26 | < 100 | < 100 | < 1000 | < 1000 | Nc1nc2cc(-c3ccc4ncc(N5CCCC5)nc4c3)ccc2o1
27 | < 100 | < 100 | < 100 | < 10000 | CS(=O)(=O)N1CCC(Nc2cnc3ccc(-c4ccc5oc(N)nc5c4)cc3n2)CC1
28 | < 1000 | < 100 | < 1000 | < 100 | C[C@H]1CN(c2cnc3ccc(-c4ccc5oc(N)nc5c4)cc3n2)CCN1
29 | < 1000 | < 100 | < 1000 | < 10000 | Nc1nc2cc(-c3ccc4ncc(N5CCC(O)CC5)nc4c3)ccc2o1
30 | < 1000 | < 100 | < 10000 | < 1000 | CC(C)N1CCN(c2cnc3ccc(-c4ccc5oc(N)nc5c4)nc3n2)CC1
31 | < 100 | < 100 | < 1000 | < 10000 | CS(=O)(=O)CCN1CCC(Nc2cnc3ccc(-c4ccc5oc(N)nc5c4)cc3n2)CC1
32 | < 1000 | < 100 | > 10000 | > 10000 | Cc1cn(-c2cnc3ccc(-c4ccc5oc(N)nc5c4)cc3n2)cn1
33 | < 1000 | < 100 | < 100 | < 1000 | CN1CCC(Nc2cnc3ccc(-c4ccc5oc(N)nc5c4)cc3n2)CC1
34 | < 1000 | < 1000 | < 10000 | > 10000 | Nc1nc2ccc(-c3ccc4ncc(C(=O)N5CCOCC5)n4c3)cc2s1
35 | < 100 | < 100 | < 10000 | < 10000 | CCn1cnc2ccc(-c3ccc4oc(N)nc4c3)cc2c1=O
36 | < 100 | < 100 | < 1000 | < 100 | CC(C)N1CCN(c2cnc3ccc(-c4ccc5oc(N)nc5c4)cc3n2)CC1
37 | < 1000 | < 100 | < 10000 | < 10000 | Nc1noc2cc(-c3ccc4nccc(-c5ccncc5)c4c3)ccc12 [Compound 16]
38 | < 100 | < 100 | > 10000 | < 10000 | Nc1nc2cc(-c3ccc4ncc(N5CCC(O)CC5)nc4n3)ccc2o1
39 | < 100 | < 100 | < 10000 | < 1000 | Nc1nc2cc(-c3ccc4ncc(N5CCNC(=O)C5)nc4n3)ccc2o1
40 | < 100 | < 100 | < 1000 | < 10000 | Nc1nc2cc(-c3ccc4ncc(-c5ccncc5)nc4c3)ccc2o1
41 | < 1000 | < 100 | < 1000 | < 1000 | CC(C)(C)N1CCN(c2cnc3ccc(-c4ccc5oc(N)nc5c4)cc3n2)CC1
42 | < 1000 | < 100 | < 10000 | > 10000 | CS(=O)(=O)N1CCN(C2CN(c3cnc4ccc(-c5ccc6oc(N)nc6c5)nc4n3)C2)CC1
43 | < 1000 | < 100 | < 1000 | < 1000 | Nc1nsc2cc(-c3ccc4nccc(-c5ccncc5)c4c3)ccc12 [Compound 13]
